The results in this text go back to patent publication US20240307547A1, “NOVEL COMPOUNDS WHICH BIND TO CEREBLON, AND METHODS OF USE THEREOF” (Captor Therapeutics S.A., priority 2020, published 2024).

One test deals with SALL4. Nature of the test: SALL4 degradation assay, Kelly cell line (western blot densitometry). Format: cell-based. As to conditions: Kelly cells, after 24 h. How it is done: Kelly cells were maintained in RPMI-1640 medium, supplemented with penicillin/streptomycin and 10% Fetal Bovine Serum (FBS). Cells were seeded on 6-well plates, and the compounds to be tested were added at the desired concentration range. Final DMSO concentration was 0.25%. After 24 h incubation (37° C., 5% CO2), cells were washed and cell lysates were prepared using RIPA lysis buffer. The amount of protein was determined via BCA assay, and the appropriate quantity was then loaded on the precast gel for the protein separation. After primary and secondary antibody staining, the membranes were washed and signals developed. The densitometry analysis was implemented to obtain the numeric values used later in the protein level evaluation process.
Densitometry values are normalized to the loading control (β-ACTIN) and presented as % of DMSO control in Table 2, below, using the following labels: • ≤25% for 0-25% of SALL4 protein reduction, • >25% for 26-74% of SALL4 protein reduction, • ≥75% for 75-100% of SALL4 protein reduction.
(In general: Immunoblotting shows a protein as a band on a membrane.)

Test [1] concerns the target CRBN-DDB1 protein complex (Homo sapiens, UniProt Q96SW2). The test can be described thus: Fluorescence polarization (FP) assay, displacement of Cy5-labelled thalidomide. Note: 25 nM CRBN-DDB1. Particulars: read-out: CRBN binding Ki. The procedure:
The test solution was added to a 384-well assay plate.
The plate was spun-down (1 min, 1000 rpm, 22° C.) and then shaken using a VibroTurbulator for 10 min at room temperature (20-25° C.), with the frequency set to level 3. The assay plate with protein and the tracer was incubated for 60 min at room temperature (20-25° C.) prior to read-out with a plate reader.
The FP experiment was carried out with various concentrations of the test compounds in order to measure Ki values.
On the technique in general: Fluorescence polarisation rises when a labelled molecule tumbles more slowly, as on binding a larger partner.

The next test concerns IKZF1. The test can be described thus: IKZF1 degradation assay, H929 cell line (western blot densitometry). Format: cell-based. As to conditions: H929 cells, after 24 h. How it is done: (§1) H929 cells were maintained in RPMI-1640 medium, supplemented with penicillin/streptomycin, 10% Fetal Bovine Serum (FBS) and 0.05 mM 2-Mercaptoethanol. Cells were seeded on 6- or 12-well plates, and the compounds to be tested were added at the desired concentration range. Final DMSO concentration was 0.25%. After 24 h incubation (37° C., 5% CO2), cells were harvested, washed and cell lysates were prepared using RIPA lysis buffer. The amount of protein was determined via BCA assay, and the appropriate quantity was then loaded on the precast gel for the protein separation. After primary and secondary Ab staining, the membranes were washed and signals developed. The densitometry analysis was implemented to obtain the numeric values used later in the protein level evaluation process.
Densitometry values are normalized to the loading control (β-ACTIN) and presented as % of DMSO control in Table 3, below, using the following labels: • ≤25% for 0-25% of IKZF1 protein reduction, • >25% for 26-74% of IKZF1 protein reduction, • ≥75% for 75-100% of IKZF1 protein reduction.

A further test has as its system IKZF3. Nature of the test: IKZF3 degradation assay, H929 cell line (western blot densitometry). Particulars: H929 cells, after 24 h. Format: cell-based. How it is done:
as §1, with “penicillin/streptomycin and” for “penicillin/streptomycin,”
Densitometry values are normalized to the loading control (β-ACTIN) and presented as % of DMSO control in Tables 4A and 4B, below, using the following labels: • ≤25% for 0-25% of IKZF3 protein reduction, • >25% for 26-74% of IKZF3 protein reduction, • ≥75% for 75-100% of IKZF3 protein reduction.

pKi: −log10 of the molar value. Bounds are passed on as bounds.

Chain of CRBN-DDB1 protein complex (Q96SW2 whole entry): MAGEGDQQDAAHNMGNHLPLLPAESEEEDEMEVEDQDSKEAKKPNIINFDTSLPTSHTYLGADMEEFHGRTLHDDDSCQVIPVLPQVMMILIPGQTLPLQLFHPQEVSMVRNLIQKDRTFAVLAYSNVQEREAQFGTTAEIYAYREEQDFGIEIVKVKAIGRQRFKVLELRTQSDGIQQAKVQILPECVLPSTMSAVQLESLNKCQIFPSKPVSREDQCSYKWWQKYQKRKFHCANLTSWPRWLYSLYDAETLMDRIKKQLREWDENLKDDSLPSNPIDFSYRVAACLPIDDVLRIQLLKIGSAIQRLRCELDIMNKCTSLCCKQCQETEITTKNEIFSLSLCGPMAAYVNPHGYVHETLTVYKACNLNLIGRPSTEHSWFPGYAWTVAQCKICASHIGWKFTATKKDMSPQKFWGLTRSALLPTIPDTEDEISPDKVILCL
Chain of CRBN-DDB1 protein complex (Q16531 whole entry partner): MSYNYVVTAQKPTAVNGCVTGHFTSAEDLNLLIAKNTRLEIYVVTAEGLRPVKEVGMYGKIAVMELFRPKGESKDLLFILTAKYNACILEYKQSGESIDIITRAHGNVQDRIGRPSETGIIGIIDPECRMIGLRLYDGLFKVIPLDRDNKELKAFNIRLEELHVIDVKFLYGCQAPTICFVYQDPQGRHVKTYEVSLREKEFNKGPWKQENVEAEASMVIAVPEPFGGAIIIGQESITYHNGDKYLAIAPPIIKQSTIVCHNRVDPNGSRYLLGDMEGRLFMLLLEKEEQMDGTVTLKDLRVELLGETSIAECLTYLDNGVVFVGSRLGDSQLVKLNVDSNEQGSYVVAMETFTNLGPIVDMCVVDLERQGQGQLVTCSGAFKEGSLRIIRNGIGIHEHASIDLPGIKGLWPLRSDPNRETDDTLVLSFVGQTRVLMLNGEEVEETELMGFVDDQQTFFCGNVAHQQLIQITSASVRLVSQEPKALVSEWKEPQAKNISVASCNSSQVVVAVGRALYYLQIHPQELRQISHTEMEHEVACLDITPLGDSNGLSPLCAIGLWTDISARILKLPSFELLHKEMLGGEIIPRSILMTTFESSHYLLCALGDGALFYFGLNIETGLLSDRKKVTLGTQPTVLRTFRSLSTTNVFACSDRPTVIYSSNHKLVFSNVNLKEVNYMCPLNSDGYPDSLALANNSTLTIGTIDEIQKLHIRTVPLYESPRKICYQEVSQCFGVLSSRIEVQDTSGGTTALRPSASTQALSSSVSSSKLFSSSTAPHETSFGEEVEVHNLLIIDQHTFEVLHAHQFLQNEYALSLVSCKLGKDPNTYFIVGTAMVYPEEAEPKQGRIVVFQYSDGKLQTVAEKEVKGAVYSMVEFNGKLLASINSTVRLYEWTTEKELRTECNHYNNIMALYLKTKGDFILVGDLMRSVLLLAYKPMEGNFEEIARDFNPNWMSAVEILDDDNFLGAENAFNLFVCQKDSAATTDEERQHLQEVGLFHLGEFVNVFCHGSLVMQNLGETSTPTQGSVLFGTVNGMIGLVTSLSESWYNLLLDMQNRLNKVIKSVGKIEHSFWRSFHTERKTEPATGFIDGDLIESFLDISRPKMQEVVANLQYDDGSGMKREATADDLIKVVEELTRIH

Regarding `Cc1nc2cccc(N)c2c(=O)n1C1CCC(=O)NC1=O` (centres unmarked) [CC-122], the “% of SALL4 protein reduction” value in the test with SALL4 (at 1 μM), with SALL4 (at 10 μM) and in the test on SALL4 (at 20 μM) was ≥75% (≥75% for 75-100% of SALL4 protein reduction) each time.
By pKi is commonly meant the negative decadic logarithm of the Ki, by convention in mol/L. For the molecule `Cc1nc2cccc([N+](=O)[O-])c2cc1C1CCC(=O)NC1=O` (centres unmarked) [Compound 2, 3-(2-methyl-5-nitroquinolin-3-yl)piperidine-2,6-dione], in test [1], the pKi is 5.30 to 6.00.
`Cc1nc2cccc(F)c2cc1C1CCC(=O)NC1=O` (centres unmarked) [Compound 3, 3-(5-fluoro-2-methylquinolin-3-yl)piperidine-2,6-dione]: the pKi in test [1] was 5.30 to 6.00.
On to `Cc1nc2c(cnn2C)cc1C1CCC(=O)NC1=O` (centres unmarked) [Compound 4, 3-(1,6-dimethyl-1H-pyrazolo[3,4-b]pyridin-5-yl)piperidine-2,6-dione], for which the negative logarithm of the Ki (pKi) in test [1] was 5.30 to 6.00.
On the same count and under the same terms, as for `Cc1nc2ccc([N+](=O)[O-])cc2cc1C1CCC(=O)NC1=O` (centres unmarked) [Compound 5, 3-(2-methyl-6-nitroquinolin-3-yl)piperidine-2,6-dione], the figure is 5.00 to 5.30; as for `Cc1nc2cc([N+](=O)[O-])ccc2cc1C1CCC(=O)NC1=O` (centres unmarked) [Compound 6, 3-(2-methyl-7-nitroquinolin-3-yl)piperidine-2,6-dione], 5.00 to 5.30; as for `Cc1nc2c([N+](=O)[O-])cccc2cc1C1CCC(=O)NC1=O` (centres unmarked) [Compound 7, 3-(2-methyl-8-nitroquinolin-3-yl)piperidine-2,6-dione], 5.30 to 6.00.
Still for that read-out and setting: the same measure for `Cc1nc2cc(N)ccc2cc1C1CCC(=O)NC1=O` (centres unmarked) [Compound 8, 3-(7-amino-2-methylquinolin-3-yl)piperidine-2,6-dione]: greater than 6.00.
With `Cc1nc2cc(C(=O)N[C@@H](C)C3CCCCC3)ccc2cc1C1CCC(=O)NC1=O` (stereo partly drawn) [Compound 9, N—((S)-1-cyclohexylethyl)-3-(2,6-dioxopiperidin-3-yl)-2-methylquinoline-7-carboxamide], in test [1], the pKi is 5.30 to 6.00.
As to `Cc1nc2c(N)cccc2cc1C1CCC(=O)NC1=O` (centres unmarked) [Compound 10, 3-(8-amino-2-methylquinolin-3-yl)piperidine-2,6-dione], in test [1], the pKi is greater than 6.00.
For `Cc1nc2ccc(N)cc2cc1C1CCC(=O)NC1=O` (centres unmarked) [Compound 11, 3-(6-amino-2-methylquinolin-3-yl)piperidine-2,6-dione], the pKi in test [1] is greater than 6.00.
As for `O=C1CCC(c2cnc3cccc([N+](=O)[O-])c3c2)C(=O)N1` (centres unmarked) [Compound 12, 3-(5-nitroquinolin-3-yl)piperidine-2,6-dione], the pKi in test [1] is 5.30 to 6.00.
Still for that read-out and setting: as for `Cc1nc2ccccc2cc1C1CCC(=O)NC1=O` (centres unmarked) [Compound 13, 3-(2-methylquinolin-3-yl)piperidine-2,6-dione], the figure is 5.30 to 6.00.
For the molecule `Nc1cccc2ncc(C3CCC(=O)NC3=O)cc12` (centres unmarked) [Compound 14, 3-(5-aminoquinolin-3-yl)piperidine-2,6-dione], the pKi in test [1] is greater than 6.00.
`Cc1ccc(NC(=O)NCc2ccc3cc(C4CCC(=O)NC4=O)c(C)nc3c2)cc1Cl` (centres unmarked) [Compound 15, 1-(3-chloro-4-methylphenyl)-3-{[3-(2,6-dioxopiperidin-3-yl)-2-methylquinolin-7-yl]methyl}urea]: in test [1], the pKi was greater than 6.00.
`Cc1nc2cc(CNC(=O)C(F)(F)c3ccc(Cl)cc3)ccc2cc1C1CCC(=O)NC1=O` (centres unmarked) [Compound 16, 2-(4-chlorophenyl)-N-{[3-(2,6-dioxopiperidin-3-yl)-2-methylquinolin-7-yl]methyl}-2,2-difluoroacetamide]: in test [1], the pKi is greater than 6.00.
With `Cc1nc2cccc(NS(=O)(=O)c3ccccc3OC(F)(F)F)c2cc1C1CCC(=O)NC1=O` (centres unmarked) [Compound 17, N-(3-(2,6-dioxopiperidin-3-yl)-2-methylquinolin-5-yl)-2-(trifluoromethoxy)benzenesulfonamide], the pKi in test [1] is greater than 6.00.
As to `Cc1nc2ccc(NS(=O)(=O)c3ccccc3OC(F)(F)F)cc2cc1C1CCC(=O)NC1=O` (centres unmarked) [Compound 18, N-(3-(2,6-dioxopiperidin-3-yl)-2-methylquinolin-6-yl)-2-(trifluoromethoxy)benzenesulfonamide], the pKi in test [1] was greater than 6.00.
Take `Cc1nc2cc(NS(=O)(=O)c3ccccc3OC(F)(F)F)ccc2cc1C1CCC(=O)NC1=O` (centres unmarked) [Compound 19, N-(3-(2,6-dioxopiperidin-3-yl)-2-methylquinolin-7-yl)-2-(trifluoromethoxy)benzenesulfonamide]: in test [1], the pKi was greater than 6.00.
With `Cc1nc2c(NS(=O)(=O)c3ccccc3OC(F)(F)F)cccc2cc1C1CCC(=O)NC1=O` (centres unmarked) [Compound 20, N-(3-(2,6-dioxopiperidin-3-yl)-2-methylquinolin-8-yl)-2-(trifluoromethoxy)benzenesulfonamide], the pKi in test [1] is 5.30 to 6.00.
On the same count and under the same terms, the same measure for `Cc1nc2c(Cl)cccc2cc1C1CCC(=O)NC1=O` (centres unmarked) [Compound 21, 3-(8-chloro-2-methylquinolin-3-yl)piperidine-2,6-dione]: 5.30 to 6.00.
Turning to `O=C1CCC(N2C(=O)c3ccccc3C2=O)C(=O)N1` (centres unmarked) [Thalidomide, reference compound], the “% of SALL4 protein reduction” value in the test on SALL4 (at 1 μM) was >25% (>25% for 26-74% of SALL4 protein reduction); in the test with SALL4 (at 10 μM), >25% (>25% for 26-74% of SALL4 protein reduction); in the test with SALL4 (at 20 μM), ≥75% (≥75% for 75-100% of SALL4 protein reduction). Moreover, the “% of IKZF1 protein reduction” value is on record as ≤25% (≤25% for 0-25% of IKZF1 protein reduction) with IKZF1 (at 1 μM), ≤25% (≤25% for 0-25% of IKZF1 protein reduction) in the test on IKZF1 (at 10 μM) and >25% (>25% for 26-74% of IKZF1 protein reduction) in the test on IKZF1 (at 20 μM). Further, the figures for the “% of IKZF3 (bottom band) protein reduction” value in the test on IKZF3 (at 1 μM), in the test on IKZF3 (at 10 μM) and with IKZF3 (at 20 μM) were ≤25% (≤25% for 0-25% of IKZF3 protein reduction), ≤25% (≤25% for 0-25% of IKZF3 protein reduction) and >25% (>25% for 26-74% of IKZF3 protein reduction), respectively. In addition, the “% of IKZF3 (upper band) protein reduction” value in the test with IKZF3 (at 1 μM) is listed as ≤25% (≤25% for 0-25% of IKZF3 protein reduction); in the test with IKZF3 (at 10 μM), ≤25% (≤25% for 0-25% of IKZF3 protein reduction); with IKZF3 (at 20 μM), >25% (>25% for 26-74% of IKZF3 protein reduction).
